Measured values as given in patent US8569267B2, “Tetracyclic tetrahydrofuran derivatives containing cyclic amine side chain” (Janssen Pharmaceutica, NV, priority 2005, dated 2013).

How the values were obtained:
[1] = target: T1, human cloned 5-HT2A receptor, expressed in L929 cells (Homo sapiens, UniProt P28223); experiment: In vitro binding affinity for 5-HT2A receptor ([125I]R91150 radioligand binding); settings: human cloned 5-HT2A receptor in L929 cells, [125I]R91150; for IC50: read-out: 5-HT2A pIC50 (converted)
T1 construct: expressed in transfected cells; host or cells: L929 cells
Experimental: In Vitro Binding Affinity for 5-HT2A and 5-HT2C Receptors
The interaction of the compounds of Formula (I) with 5-HT2A and 5-HT2C receptors was assessed in in vitro radioligand binding experiments. […] During the incubation, the radioligands bind to the receptor. When equilibrium of binding is reached, the receptor bound radioactivity is separated from the non-bound radioactivity, and the receptor bound activity is counted. The interaction of the test compounds with the receptors is assessed in competition binding experiments. Various concentrations of the test compound are added to the incubation mixture containing the tissue preparation and the radioligand. Binding of the radioligand will be inhibited by the test compound in proportion to its binding affinity and its concentration. The affinities of the compounds for the 5-HT2 receptors were measured by means of radioligand binding studies conducted with: (a) human cloned 5-HT2A receptor, expressed in L929 cells using [^125I]R91150 as radioligand and (b) human cloned 5-HT2C receptor, expressed in CHO cells using [^3H]mesulergine as radioligand.

[2] = target: T2, human cloned 5-HT2C receptor, expressed in CHO cells (Homo sapiens, UniProt P28335); experiment: In vitro binding affinity for 5-HT2C receptor ([3H]mesulergine radioligand binding); settings: human cloned 5-HT2C receptor; for IC50: read-out: 5-HT2C pIC50 (converted)
T2 construct: expressed in transfected cells; host or cells: CHO cells
T2 sequence (P28335 33-458): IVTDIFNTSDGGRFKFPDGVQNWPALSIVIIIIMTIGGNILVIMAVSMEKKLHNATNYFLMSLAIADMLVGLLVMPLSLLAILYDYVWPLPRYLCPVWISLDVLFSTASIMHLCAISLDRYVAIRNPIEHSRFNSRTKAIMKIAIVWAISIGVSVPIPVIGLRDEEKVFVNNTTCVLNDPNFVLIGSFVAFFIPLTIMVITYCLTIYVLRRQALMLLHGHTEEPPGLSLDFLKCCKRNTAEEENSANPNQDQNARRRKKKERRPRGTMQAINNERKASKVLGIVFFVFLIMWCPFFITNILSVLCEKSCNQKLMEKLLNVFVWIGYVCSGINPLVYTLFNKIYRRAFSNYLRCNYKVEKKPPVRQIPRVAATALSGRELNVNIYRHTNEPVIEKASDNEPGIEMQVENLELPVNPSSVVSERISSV
In short: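 Receptor-bound radioligand counted after separation from unbound label once equilibrium is reached. Test compound added across a concentration range to tissue preparation plus radioligand; inhibition of binding reflects affinity and concentration.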

[3] = target: T3, human Dopamine D2L receptor (Homo sapiens, UniProt P14416); experiment: In vitro binding affinity for human D2L receptor ([3H]Spiperone binding); settings: human D2L receptor-transfected CHO cell membranes; for IC50: read-out: D2L pIC50 (converted)
T3 construct: expressed in transfected cells; host or cells: CHO cells
In short: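 Competition curves were expressed as percent specific binding, measured by scintillation counting after filtration onto GF/B filters and ice-cold Tris washes. Test compounds competed with [3H]Spiperone, added from a 2 nmol/L dilution, for 30 min at 37° C on transfected CHO membranes in pH 7.7 Tris-HCl salt buffer. Butaclamol at 10^−6 mol/l final marked non-specific binding.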

[4] = target: T4, NET (norepinephrine transporter) (Rattus norvegicus, UniProt Q63380); experiment: In vitro determination of NET reuptake inhibition ([3H]Nixosetine binding, rat brain cortex); settings: rat brain cortex; for IC50: read-out: NET pIC50 (converted)
T4 construct: Cortex from rat brain was collected and homogenised; from tissue; host or cells: rat brain cortex
In short: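 Competition curves and percentage specific binding came from scintillation counting of filter-trapped radioactivity. The membranes were rat cortical homogenate in pH 7.4 Tris buffer with 120 mM NaCl and 5 mM KCl. Test compounds competed with [3H]nisoxetine for binding.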

T1 sequence (P28223 whole entry): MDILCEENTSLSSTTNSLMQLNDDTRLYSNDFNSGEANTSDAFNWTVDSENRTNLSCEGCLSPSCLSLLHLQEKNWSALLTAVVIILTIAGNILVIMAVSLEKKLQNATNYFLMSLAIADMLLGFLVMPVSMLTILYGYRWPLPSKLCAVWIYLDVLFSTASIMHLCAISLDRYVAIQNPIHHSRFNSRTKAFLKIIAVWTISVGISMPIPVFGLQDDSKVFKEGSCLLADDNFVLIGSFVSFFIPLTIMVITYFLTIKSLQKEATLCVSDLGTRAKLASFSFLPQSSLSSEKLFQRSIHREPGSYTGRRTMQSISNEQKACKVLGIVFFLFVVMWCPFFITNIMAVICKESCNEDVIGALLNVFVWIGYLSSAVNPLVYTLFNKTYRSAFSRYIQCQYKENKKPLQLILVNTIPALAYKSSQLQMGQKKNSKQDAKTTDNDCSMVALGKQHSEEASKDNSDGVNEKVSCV
T3 sequence (P14416 whole entry): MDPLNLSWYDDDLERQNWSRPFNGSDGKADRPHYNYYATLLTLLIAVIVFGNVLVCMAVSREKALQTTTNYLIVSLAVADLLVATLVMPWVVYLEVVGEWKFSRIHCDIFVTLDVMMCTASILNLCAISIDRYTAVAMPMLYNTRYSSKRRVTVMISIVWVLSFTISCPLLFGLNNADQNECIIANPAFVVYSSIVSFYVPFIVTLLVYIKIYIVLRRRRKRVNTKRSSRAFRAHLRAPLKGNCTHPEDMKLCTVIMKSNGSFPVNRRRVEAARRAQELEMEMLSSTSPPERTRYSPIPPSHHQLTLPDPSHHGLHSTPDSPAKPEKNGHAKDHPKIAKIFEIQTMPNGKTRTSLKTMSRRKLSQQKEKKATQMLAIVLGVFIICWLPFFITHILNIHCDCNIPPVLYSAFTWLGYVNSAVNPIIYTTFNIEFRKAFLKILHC
T4 sequence (Q63380 1-617): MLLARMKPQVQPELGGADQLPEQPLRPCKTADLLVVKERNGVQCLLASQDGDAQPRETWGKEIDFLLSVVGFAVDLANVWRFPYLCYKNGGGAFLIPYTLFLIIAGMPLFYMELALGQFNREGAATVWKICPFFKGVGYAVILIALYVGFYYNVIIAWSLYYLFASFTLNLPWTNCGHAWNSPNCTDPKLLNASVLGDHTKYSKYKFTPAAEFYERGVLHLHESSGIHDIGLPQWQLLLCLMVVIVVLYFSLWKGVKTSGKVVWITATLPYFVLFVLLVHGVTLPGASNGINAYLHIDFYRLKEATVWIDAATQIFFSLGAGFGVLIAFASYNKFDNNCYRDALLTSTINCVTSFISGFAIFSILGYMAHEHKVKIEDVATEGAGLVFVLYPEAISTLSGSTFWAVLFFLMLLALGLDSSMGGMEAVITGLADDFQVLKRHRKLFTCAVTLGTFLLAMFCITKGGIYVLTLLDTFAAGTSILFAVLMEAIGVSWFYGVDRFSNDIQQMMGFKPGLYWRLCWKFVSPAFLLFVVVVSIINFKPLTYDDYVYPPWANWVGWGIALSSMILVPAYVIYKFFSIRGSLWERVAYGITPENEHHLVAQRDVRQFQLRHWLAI

SMILES: N#CCCC1CCCN(CC2CC3c4ccccc4Cc4ccc(F)cc4C3O2)C1 (mixture of isomers) [Compound 169]
- IC50 [1]: 3.16 nM
- IC50 [2]: 2.88 nM
- IC50 [3]: 13.8 nM
- IC50 [4]: 1620 nM

SMILES: CCNC(=O)OCC1CCN(CC2CC3c4ccccc4Cc4ccc(F)cc4C3O2)C1 (mixture of isomers) [Compound 20]
- IC50 [1]: 0.832 nM
- IC50 [2]: 1.41 nM
- IC50 [3]: 3.63 nM
- IC50 [4]: 1050 nM

SMILES: CSCCNC(=O)N1CCN(CC2CC3c4ccccc4Cc4ccc(F)cc4C3O2)CC1 (centres unmarked) [Compound 87]
- IC50 [1]: 1.26 nM
- IC50 [2]: 3.09 nM
- IC50 [3]: 25.7 nM
- IC50 [4]: 5890 nM

SMILES: COc1ccc(OC2CCN(CC3CC4c5ccccc5Cc5ccc(F)cc5C4O3)C2)cc1 (mixture of isomers) [Compound 33]
- IC50 [1]: 6.17 nM
- IC50 [2]: 2 nM
- IC50 [3]: 7.94 nM
- IC50 [4]: 4900 nM

SMILES: O=C(OC1CCN(CC2CC3c4ccccc4Cc4ccc(F)cc4C3O2)C1)c1ccc(F)cc1 (mixture of isomers) [Compound 16]
- IC50 [1]: 5.62 nM
- IC50 [2]: 2.82 nM
- IC50 [3]: 5.13 nM
- IC50 [4]: 2000 nM

SMILES: COc1ccccc1N1CCN(C(=O)C2CCN(CC3CC4c5ccccc5Cc5ccc(F)cc5C4O3)CC2)CC1 (centres unmarked) [Compound 203]
- IC50 [1]: 3.63 nM
- IC50 [2]: 3.09 nM
- IC50 [3]: 16.6 nM
- IC50 [4]: 4470 nM

SMILES: OCCC1CN(C[C@H]2C[C@@H]3c4ccccc4Cc4ccc(F)cc4[C@@H]3O2)CCO1 (some centres unmarked) [Compound 129]
- IC50 [1]: < 10 nM
- IC50 [2]: 7.59 nM
- IC50 [3]: 29.5 nM
- IC50 [4]: 417 nM

SMILES: O=C(NC1CCCCC1)C1CCN(CC2CC3c4ccccc4Cc4ccc(F)cc4C3O2)CC1 (centres unmarked) [Compound 188]
- IC50 [1]: < 10 nM
- IC50 [2]: 2.75 nM
- IC50 [3]: 9.77 nM
- IC50 [4]: > 10000 nM

SMILES: Fc1ccc2c(c1)C1OC(CN3CCN(c4nc5ccccc5[nH]4)CC3)CC1c1ccccc1C2 (centres unmarked) [Compound 127]
- IC50 [1]: 0.251 nM
- IC50 [2]: 4.17 nM
- IC50 [3]: 22.4 nM
- IC50 [4]: 3800 nM

SMILES: COc1ccccc1OC1CCN(CC2CC3c4ccccc4Cc4ccc(F)cc4C3O2)C1 (mixture of isomers) [Compound 32]
- IC50 [1]: 2.19 nM
- IC50 [2]: 0.912 nM
- IC50 [3]: 7.41 nM
- IC50 [4]: 7410 nM

SMILES: O=[N+]([O-])c1ccc(CN2CCN(CC3CC4c5ccccc5Cc5ccc(F)cc5C4O3)CC2)cc1 (centres unmarked) [Compound 73]
- IC50 [1]: 20.4 nM
- IC50 [2]: 46.8 nM
- IC50 [3]: 18.6 nM
- IC50 [4]: 3630 nM

SMILES: Fc1ccc2c(c1)[C@@H]1O[C@@H](CN3CC=CC3)C[C@@H]1c1ccccc1C2.O=C(O)C(=O)O [Compound 266]
- 5-HT2A pIC50 [1]: 8.09
- 5-HT2C pIC50 [2]: 8.42
- D2L pIC50 [3]: 7.42
- NET pIC50 [4]: 6.61

SMILES: Fc1ccc2c(c1)C1OC(CN3CCN(c4nc5ccccc5o4)CC3)CC1c1ccccc1C2 (centres unmarked) [Compound 126]
- IC50 [1]: 8.91 nM
- IC50 [2]: 79.4 nM
- IC50 [3]: 214 nM
- IC50 [4]: 9770 nM

SMILES: C=CCN(C)C(=O)C1CCN(CC2CC3c4ccccc4Cc4ccc(F)cc4C3O2)CC1 (centres unmarked) [Compound 177]
- IC50 [1]: < 10 nM
- IC50 [2]: 4.47 nM
- IC50 [3]: 11.7 nM
- IC50 [4]: 9770 nM

SMILES: O=C(C1CCN(CC2CC3c4ccccc4Cc4ccc(F)cc4C3O2)CC1)N1CCN(CC=Cc2ccccc2)CC1 (centres unmarked) [Compound 204]
- IC50 [1]: 3.16 nM
- IC50 [2]: 10.5 nM
- IC50 [3]: 66.1 nM
- IC50 [4]: 3470 nM

SMILES: COC(=O)c1ccc(OC2CCN(CC3CC4c5ccccc5Cc5ccc(F)cc5C4O3)C2)cc1 (centres unmarked) [Compound 30]
- IC50 [1]: 10.5 nM
- IC50 [2]: 5.75 nM
- IC50 [3]: 16.2 nM
- IC50 [4]: > 10000 nM

SMILES: Fc1ccc2c(c1)C1OC(CN3CCN(c4ccccn4)CC3)CC1c1ccccc1C2 (centres unmarked) [Compound 117]
- IC50 [1]: 1.48 nM
- IC50 [2]: 2.51 nM
- IC50 [3]: 15.5 nM
- IC50 [4]: 4570 nM
